Test results published in patent US11565094B2, “Delivery devices” (THE METHODIST HOSPITAL SYSTEM, priority 2017, dated 2023).

Legend:
[1] = VEGF 0.5 and 5 μg/mL in PLM, subcutaneous device
Procedure: The encapsulation systems were evaluated in nude mice (Nu/Nu, female, 8-10 week old), after receiving approval by the Institutional Animal Care and Use Committee of Houston Methodist Research Institute. Surface treated and sterilized devices, loaded with platelet-lysate matrix (PLM) enriched with VEGF at two different concentrations (0.5 and 5 μg/mL), were implanted subcutaneously in the mice dorsum (n=12 per group). At 1, 2, and 4 weeks post implantation, 4 mice per group were euthanized and the graft explanted for the histological assessment of vascularization and innervation. The implant and surrounding tissues were harvested and processed for histopathology evaluation of tissue response to the implanted device. CD31 antibody (Abcam, ab28364) and a pan-axonal antibody (Cambridge Bioscience, SMI-312R-100) were used to assess vascularization and innervation, respectively.
In vivo vascularization and innervation of oxygen treated devices after subcutaneous implantation in nude mice was then investigated. […] To stimulate neovascularization and to support the islet viability and function for a period of time after transplantation, devices loaded with biological gels with different VEGF concentrations was used. […] Tissue samples were taken from the side of the device closer to the skin, representing the subcutaneous environment.

[2] = parameters: species or system C57Bl6 mice; settings: mouse, in vivo
Excerpt: Utilizing the percutaneous trocar delivery approach, PEEK nano-channel implants loaded with Magnevist were inserted intratumorally into the upper thigh of C57Bl6 mice with induced melanoma. The implants were visualized on T1-weighted images as an area of hypointensity corresponding to the PEEK body and surrounded by a hyperintense halo of contrast agent (FIG. 7B). Implant location could also be identified on T2-weighted images that, in addition, highlighted tumor heterogeneity (FIG. 7A).
An unexpected outcome was the implant's loaded concentration being too high for visualization, as the relaxation time was faster than the scanner could detect. This is further evidenced by the sharp onset of observable enhancement a few mm from the implant's exterior. The narrow band of this observable enhancement, beginning 2-5 mm from the implant's exterior and approximately 1 mm thick, provides evidence of rapid clearance of the contrast agent from the tumor tissue. FIG. 7C serves as an idealized graphical representation of the relationship between the normalized concentration and the visible contrast zone.

Compound	number of vessels stained by CD31 versus VEGF concentration [1]	distance from implant's exterior where observable enhancement begins [2]	thickness of band of observable enhancement [2]
vascular endothelial growth factor [VEGF]	positive trend		
CNC[C@H](O)[C@@H](O)[C@H](O)[C@H](O)CO.CNC[C@H](O)[C@@H](O)[C@H](O)[C@H](O)CO.O=C([O-])CN(CCN(CC(=O)[O-])CC(=O)O)CCN(CC(=O)[O-])CC(=O)O.[Gd+3] [Magnevist]		2-5 mm	approximately 1 mm
